The values below come from PubChem BioAssay AID179 (DTP/NCI, 2004).

This assay relates to CEM cells HIV-1 protection, formazan growth assay. The assay is described as follows: NCI AIDS Antiviral Assay. The note with it: for IC50: measured here: growth of uninfected CEM cells. An outline of the steps:
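Soluble formazan readout of cell growth; CEM cells ± HIV-1; 5 drug concs. ≥50% protection → retest; ≥50% again = moderately active; reproducible 100% = confirmed active.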

The source made the active and inactive calls.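 How the source made its calls: active means compounds giving half or more protection of infected cells from virus-caused growth loss, again on retest; inactive means the rest.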

For `Cc1ccccc1N=Nc1c(S(=O)(=O)O)cc2cc(NC(=O)Nc3ccc4c(O)c(N=Nc5ccc6cc(S(=O)(=O)O)ccc6c5)c(S(=O)(=O)O)cc4c3)ccc2c1O`, the outcome was active.
Same read-out and setting: the value for `S=C(NCCCCCCNC(=S)Nc1c2ccccc2nc2ccccc12)Nc1c2ccccc2nc2ccccc12` was “inactive”.
As for `CCC1COc2nc(=O)c(C=NCCCN(C)C)c(N)n21` (centres undefined), the EC50 is greater than 302 µM and the IC50 was greater than 302 µM.
With `CC(=O)C(C(=O)C(=O)Nc1cc(Cl)c(Cl)cc1Cl)c1csc(N)n1` (centres undefined), the EC50 was greater than 229 µM and the IC50 was greater than 229 µM.
On to `NC(=O)c1csc(C2(O)COC(CO)C2O)n1` (centres undefined), for which the EC50 is greater than 200 µM and the IC50 is greater than 200 µM.
Regarding `COCC#C[C@@]1(O)CCCCC1CC(OC)OC` (some centres undefined), the EC50 is greater than 200 µM and the IC50 turned out to be 112 µM.
Consider `C[C@@H]1OC2(O)[C@H]3CCCN3S(=O)(=O)CCN2C1=O` (some centres undefined), for which the EC50 is greater than 912 µM and the IC50 was greater than 912 µM.
Regarding `N#CC(Nc1cccc(C(F)(F)F)c1)c1ccccc1C(F)(F)F` (centres undefined), the EC50 is greater than 39.8 µM and the IC50 is greater than 39.8 µM.
As to `O=c1[nH][nH]c(=O)c2ncccc12`, the EC50 was greater than 200 µM and the IC50 is greater than 200 µM.
For `O=C1c2ccccc2-n2c1nc1ccccc1c2=O`, the EC50 was greater than 200 µM and the IC50 turned out to be 52.5 µM.
As for `O=C1NC(O)c2cc(Cl)cc(Cl)c2O1` (centres undefined), the outcome was inactive.
For `COc1ccc2c(c1)nc1n2C(c2c(Cl)cccc2Cl)SC1` (centres undefined), the EC50 is greater than 200 µM and the concentration for half-maximal inhibition (IC50) came to 33.1 µM.
Consider `CCCCCCCNC(C)(C)C(SSSC(c1ccc(Cl)cc1)C(C)(C)NCCCCCCC)c1ccc(Cl)cc1` (centres undefined), for which the EC50 is greater than 100 µM and the IC50 is greater than 100 µM.
Take `CC(=O)C1C(=O)OC2C3C=CC(C3)C2C1=O` (centres undefined): the EC50 is greater than 309 µM and the IC50 was greater than 309 µM.
In the case of `O=c1[nH]c2cc(Cl)ccc2nc1/C(=N\Nc1ccccc1)C(O)c1ccc(Cl)c(Cl)c1` (centres undefined), the EC50 is greater than 219 µM and the IC50 stood at 18.2 µM.
Turning to `CCOc1cccc2ccc[n+](CC)c12`, the EC50 was greater than 251 µM and the IC50 is 25.1 µM.
As for `C#CN1C(=O)c2c(c(-c3ccccc3)c(-c3ccc(Oc4ccc(-c5c(-c6ccccc6)c6c(c(-c7ccccc7)c5-c5ccccc5)C(=O)N(C#C)C6=O)cc4)cc3)c(-c3ccccc3)c2-c2ccccc2)C1=O`, the EC50 is greater than 10.2 µM and the IC50 was greater than 10.2 µM.
On to `CC(C)(C)[Si](C)(C)OCC1OC(n2ccc(=O)[nH]c2=O)C(O[Si](C)(C)C(C)(C)C)C1C/C=[N+](/[O-])CC1OC(n2ccc(=O)[nH]c2=O)C(O[Si](C)(C)C(C)(C)C)C1O[Si](C)(C)C(C)(C)C` (centres undefined), for which the EC50 is greater than 100 µM and the IC50 was greater than 100 µM.
As to `O=C1NN2CCN=C2c2ncccc21`, the EC50 was greater than 933 µM and the IC50 is greater than 933 µM.
Regarding `Cc1c(O)c(OC2OC(CO)C(O)C(O)C2O)cc2c1CC[C@@H]1C2(C)C(=O)C[C@]2(C)[C@@H]([C@@](C)(O)C(=O)CCC(C)(C)O)[C@H](O)C[C@@]12C` (some centres undefined), the EC50 was greater than 200 µM and the IC50 is greater than 200 µM.
As to `CC(=O)N(CCN1C(=O)c2ccccc2C1=O)CCN1C(=O)c2ccccc2C1=O`, the result was inactive.
Consider `c1ccc(C2=Nc3ccccc3N=C(c3ccccc3)C2)cc1`, for which the EC50 was greater than 17.8 µM and the IC50 is greater than 17.8 µM.
For `COc1cc(C2C(O)N(C)C(=O)C23CCCN3C)c(Br)cc1Br` (centres undefined), the outcome was inactive.
Regarding `Cn1c(-c2ccc(/C=N\N3CCN(/N=C/c4ccc(-c5c[n+]6ccccc6n5C)cc4)CC3)cc2)c[n+]2ccccc12`, the EC50 was greater than 3.02 µM and the 50% inhibitory concentration (IC50) was greater than 3.02 µM.
For `CC12C=CC(=O)C=C1CCC1C3CCC(O)(C(=O)CO)C3(C)CC(O)C12F` (centres undefined), the result was inactive.
With `O=C1NC2(CCN(CCCC3(c4ccc(F)cc4)OCCO3)CC2)Oc2ccccc21`, the EC50 was greater than 100 µM and the IC50 is greater than 100 µM.
In the case of `CC(C)(C)C1CCC2c3c([nH]c4ccccc34)C3C(=O)N(c4ccccc4[N+](=O)[O-])C(=O)C3C2C1` (centres undefined), the EC50 is greater than 200 µM and the half-maximal inhibitory concentration (IC50) stood at 36.3 µM.
The like results for `COc1ccc(C[C@H]2COC(=O)[C@@H]2Cc2ccc(Br)cc2)cc1OC` were, in that order, greater than 200 µM and 24.5 µM.
In the case of `CNC(=O)CCCC=C(c1cc(Cl)c(OC)c(C(=O)NC)c1)c1cc(Cl)c(OC)c(C(=O)NC)c1`, the EC50 was greater than 200 µM and the IC50 was determined as 38.9 µM.
Turning to `COc1cc(C(C)=O)cc(C(=O)N(C(C)C)C(C)C)c1[Si](C)(C)C`, the EC50 was greater than 100 µM and the IC50 was greater than 100 µM.
Regarding `CC(=Nc1ccc(N(C)C)cc1)c1ccccc1`, the EC50 was greater than 200 µM and the half-inhibitory concentration (IC50) came out at 28.8 µM.
On to `S=c1s[nH]c2c1CCC2`, for which the EC50 was greater than 107 µM and the IC50 is 77.6 µM.
With `CC(=O)OC1COC(N2c3ccccc3[C@@H]3CCc4c([nH]c5ccccc45)[C@@H]32)C(OC(C)=O)C1OC(C)=O` (mixture of isomers), the EC50 is greater than 155 µM and the IC50 stood at 19.5 µM.
Take `O=c1c2cc([N+](=O)[O-])ccc2oc2ccc([N+](=O)[O-])cc12`: the EC50 was greater than 13.2 µM and the IC50 was greater than 13.2 µM.
Consider `COc1ccc(S(=O)(=O)N/N=C\c2cc([N+](=O)[O-])cc(I)c2O)c(OC)c1OC`, for which the EC50 was greater than 468 µM and the half-maximal inhibitory concentration (IC50) was 67.6 µM.
The corresponding values for `COc1ccc(C2CC(c3c(C)nn(-c4ccccc4)c3-c3ccc(C)cc3O)=NN2c2ccccc2)cc1` (centres undefined) are greater than 200 µM and 12.9 µM.
On to `Cc1cc2c(C(C)C)c(O)c(O)c(C=Nc3cccc(O)c3)c2c(O)c1-c1c(C)cc2c(C(C)C)c(O)c(O)c(C=Nc3cccc(O)c3)c2c1O`, for which the result was inactive and the IC50 is 8.13 µM.
`Cc1ccc(S(=O)(=O)c2ccccc2)cc1`: the EC50 is greater than 155 µM and the IC50 is greater than 155 µM.
On to `[N-]=[N+]=NC1(c2ccccc2)C(=O)c2cccc3c2N(CCC3)C1=O` (centres undefined), for which the EC50 was greater than 200 µM and the IC50 is 141 µM.
As for `COC1(CC[C@H](C)COC2OC(CO)C(O)C(O)C2O)O[C@H]2C[C@H]3[C@@H]4CC=C5C[C@@H](OC6OC(CO)C(OC7OC(C)C(O)C(O)C7O)C(O)C6OC6OC(C)C(O)C(O)C6O)CC[C@]5(C)[C@H]4CC[C@]3(C)[C@H]2[C@@H]1C` (some centres undefined), the EC50 was greater than 200 µM and the IC50 is 1.58 µM.
For `O=C1c2cccc([N+](=O)[O-])c2C(=O)c2c1oc1ccc3ccccc3c21`, the EC50 was greater than 200 µM and the IC50 is greater than 200 µM.
`Cc1cc(N)c2ccccc2[n+]1CCCCCCCCCC[n+]1c(C)cc(N)c2ccccc21`: the EC50 is greater than 24.5 µM and the half-maximal inhibitory concentration (IC50) was 0.155 µM.
Turning to `Cc1cc(O)c2c(c1)C(=O)c1cccc(O)c1C2=O`, the EC50 was greater than 28.2 µM and the half-inhibitory concentration (IC50) is greater than 28.2 µM.
For `CC12CCCCC1=C(F)C(F)(F)S2` (centres undefined), the EC50 is greater than 200 µM and the 50% inhibitory concentration (IC50) was 115 µM.
Consider `Oc1c(Br)ccc2cccnc12`, for which the EC50 is greater than 20 µM and the 50% inhibitory concentration (IC50) was 0.794 µM.
The like results for `CCOC1CN(C)C(=Nc2cccc3ccccc23)S1` (centres undefined) were, in that order, 4.9 µM and 148 µM.
The like results for `CCc1cccc(C(C)C)c1NC(=O)C(=O)C1C(=O)Nc2ccccc2S1=O` (centres undefined) were, in that order, greater than 91.2 µM and greater than 91.2 µM.
In the case of `c1csc(-c2nc3sc(-c4cccs4)nc3s2)c1`, the result was inactive.
`Cc1cccc(C)c1NC(=O)/C(=N/NC(N)=S)C(C)C(=O)c1ccc(Cl)cc1` (centres undefined): the EC50 is greater than 44.7 µM and the 50% inhibitory concentration (IC50) was greater than 44.7 µM.
Turning to `CC(C)N(C(=O)C12C3C4C1C1C4(C#N)C3C12C#N)C(C)C` (centres undefined), the EC50 is greater than 129 µM and the IC50 was greater than 129 µM.
Consider `COC1=C(C)C(=O)c2ncccc2C1=O`, for which the outcome was inactive.
Consider `Cc1cc(C)nc(NC(N)=NCCc2ccccc2)n1`, for which the EC50 was greater than 200 µM and the IC50 was determined as 3.31 µM.
Consider `CC(NC1=NCCO1)c1cccc([N+](=O)[O-])c1` (centres undefined), for which the EC50 is greater than 200 µM and the IC50 is greater than 200 µM.
`COc1ccc(C[C@H]2COC(=O)[C@@H]2Cc2cc(OC)c(O)c(OC)c2)cc1OC`: the EC50 is greater than 200 µM and the IC50 is 39.8 µM.
The like results for `O=S1(=O)CC2C3CC(Oc4ccccc4)C(C3)C2C1` (centres undefined) were, in that order, greater than 107 µM and greater than 107 µM.
The corresponding values for `C=CCSCCOCn1cc(C)c(=O)[nH]c1=O` are greater than 200 µM and greater than 200 µM.
The like results for `CC1(C)OC(=O)C(c2ccsc2)C(=O)O1` were, in that order, greater than 1100 µM and 589 µM.
As to `Clc1ccc(/C=N/N=C/c2ccc(Cl)cc2)cc1`, the result was inactive.
Turning to `CCOP(=O)(CC(=O)NC(C(N)=O)C(C)C)OCC` (centres undefined), the EC50 was greater than 100 µM and the IC50 came out at 52.5 µM.
With `O=C(NC(CSC(c1ccccc1)c1ccccc1)C(=O)Oc1ccc([N+](=O)[O-])cc1)OCc1ccccc1` (centres undefined), the EC50 is greater than 200 µM and the IC50 was found to be 85.1 µM.
The like results for `O=C(CC(=O)Nc1ccccc1)N/N=C/c1cc(N=Nc2ccc(Br)cc2)ccc1O` were, in that order, greater than 200 µM and 1.35 µM.
Turning to `COc1ccc(-c2cc(=O)c3c(C)cc(O)cc3o2)cc1OC`, the EC50 is greater than 200 µM and the IC50 was found to be 174 µM.
The corresponding values for `NC[C@H]1Nc2ccccc2[C@@H](O)C1O` (some centres undefined) are 47.9 µM and 1290 µM.
For the compound `CCOP(=O)(CCCC(O)CNc1cc(Cl)nc(N)n1)OCC` (centres undefined), the EC50 is greater than 200 µM and the IC50 was greater than 200 µM.
For the compound `CCOC(=O)CCC(NC(=O)c1ccc(CNc2nc3ccccc3nc2C(=O)OCC)cc1)C(=O)OCC` (centres undefined), the EC50 is greater than 200 µM and the 50% inhibitory concentration (IC50) is greater than 200 µM.
`COC(=O)/C=C\c1ccc2c(c1)CC1(C2)Cc2ccc(/C=C/C(=O)OC)cc2C1` (centres undefined): the EC50 was greater than 200 µM and the IC50 is greater than 200 µM.
As for `CN1C(OCc2ccccc2)c2c(ccc3c2OCO3)C2C=Cc3cc4c(cc3C21)OCO4` (centres undefined), the EC50 is greater than 11.7 µM and the IC50 is 0.676 µM.
`Cc1nc(Cl)nc2c1C(=O)Nc1ccccc1N2`: the EC50 is greater than 52.5 µM and the IC50 came to 26.9 µM.
The like results for `Cc1ccc2c(c1C)CC1(Cc3c(C)ccc(C)c3C1=O)C2=O` (centres undefined) were, in that order, greater than 100 µM and greater than 100 µM.

As usually defined, the EC50 is the concentration needed to bring the measured effect to its halfway point. By IC50 is commonly meant the concentration that gives 50% inhibition. A low value points to greater potency.
